Data: US20250115598A1 (Anaxis Pharma Pty Ltd, priority 2021, published 2025)

Key:
endogenous MLKL in MDF = endogenous MLKL in MDF (Mus musculus (Mouse), UniProt Q9D2Y4); test: Degradation assay: endogenous MLKL in MDF (western blot); conditions: MDF cells, 24 h incubation with compound, MLKL adjusted for loading with GAPDH, normalized to DMSO only control, read-out: Degradation of endogenous MLKL in MDF (DC50 cell-based assay)
Description: Degradation Assay: Screening Compounds Procedure to Evaluate the Activity of Compounds in Degrading Endogenous MLKL in Human and Mouse Cell
The mouse dermal fibroblast (MDF) cell line was seeded the day before the experiment in a 24-well plate at a cell density of […] per well in a volume of 0.5 mL per well and left to attach overnight. The human monocyte cell line (U937) was seeded on the day of the experiment in a 24-well plate at a cell density of […] per well in a volume of 0.5 mL per well.
The compound was diluted in DMSO with a starting concentration of 10 mM and titrated stepwise with a dilution of 1:5. 0.5 μL of the compound dilution was added to the appropriate well to achieve a final concentration of 10; 2; 0.4; 0.08 and 0.016 μM. A DMSO only well was included as control.
The cells were incubated for 24 h in the presence of the compound at 37° C. and 10% CO2.
After the 24 h incubation period, the medium was removed and cells washed with 0.5 mL PBS. The cells were then lysed directly in 60 μL of 1×SDS gel loading buffer.
The cell lysate was heat-denatured at […] for 10 min. 10 μL of lysate per well were run on 18-well 4-15% Criterion TGX stain free gels (BIO-RAD). The proteins were then transferred onto nitrocellulose membrane with a wet transfer protocol in the Criterion Blotter (BIO-RAD).
Membranes were blocked with 5% skim milk in TBST. Primary antibody against MLKL (clone 3H1, MABC604 Merck) was used at 1:2000 dilution in TBST with 1% BSA and left shaking over night at 4° C. After washes with TBST, the membranes were incubated with goat anti-rat IgG HRP-conjugated antibody (Southern Biotech) in 1% skim milk TBST at 1:10000 dilution for 1 h at room temperature. After TBST washes the bands were imaged on the ChemiDoc MP Imaging System (BIO-RAD) with Immobilion Western Chemiluminescent HRP Substrate Forte (Millipore). The loading control GAPDH was probed for with rabbit anti-GAPDH (CST 14C10) at 1:2000 dilution in 1% BSA TBST over night at 4° C. TBST washes were followed by incubation with goat anti-rabbit IgG HRP-conjugated antibody (Southern Biotech) in 1% skim milk TBST at 1:10000 dilution for 1 h at room temperature followed by TBST washes. The signal was detected as described above.
The band intensity was measured in the ImageLab Software (BIO-RAD) and the MLKL values adjusted for loading with GAPDH. The percentage of degradation was calculated by normalizing the compound treated values to the DMSO only control.

[1] = system: Immortalised Mouse Dermal Fibroblasts (MDFs); test: Cellular assay: inhibition of TSI induced necroptosis, CellTitre-Glo viability; conditions: Mus musculus, Fibroblast; MDF, 3 hours TSI cocktail, Table 27; read-out: Inhibition of TSI-induced necroptosis (IC50 cell-based assay) in MDF
In short: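 Necroptosis induced for 3 h with TSI: rhTNF 100 ng/ml, Smac mimetic 500 nM, caspase inhibitor IDN-6556 10 μM. Mouse dermal fibroblasts had received compound (36 μM top, ten three-fold steps) 30 min beforehand. ATP-based viability scaled between untreated and TSI-only wells; IC50 taken as 4-parameter curve inflection.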

human MLKL (full length) = human MLKL (full length) (Homo sapiens (Human), UniProt Q8NB16); test: KINOMEscan binding assay, human MLKL (full length); conditions: hMLKL, Table 25; read-out: MLKL (KD)
Sequence of human MLKL (full length) (Q8NB16 whole entry): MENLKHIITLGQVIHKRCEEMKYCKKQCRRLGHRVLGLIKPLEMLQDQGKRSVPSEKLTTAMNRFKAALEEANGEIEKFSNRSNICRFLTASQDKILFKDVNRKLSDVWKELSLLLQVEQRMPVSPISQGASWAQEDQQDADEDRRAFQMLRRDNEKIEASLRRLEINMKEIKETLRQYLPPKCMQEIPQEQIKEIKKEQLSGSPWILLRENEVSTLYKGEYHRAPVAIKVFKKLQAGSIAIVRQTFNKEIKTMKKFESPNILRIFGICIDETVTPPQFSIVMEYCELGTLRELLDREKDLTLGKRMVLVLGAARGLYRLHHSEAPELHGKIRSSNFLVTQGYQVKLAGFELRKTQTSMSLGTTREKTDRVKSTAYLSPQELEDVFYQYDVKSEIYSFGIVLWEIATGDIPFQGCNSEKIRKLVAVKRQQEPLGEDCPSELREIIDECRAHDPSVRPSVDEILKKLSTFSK
In short: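 KINOMEscan competition binding using kinase-tagged T7 phage or HEK-293-produced DNA-tagged protein captured on ligand beads, with eluted protein quantified by qPCR. Compounds were run as an 11-point 3-fold series, top 30,000 nM, in 1% DMSO. Kd was fitted with the Hill equation, slope fixed at −1.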

Sequence of endogenous MLKL in MDF (Q9D2Y4 whole entry): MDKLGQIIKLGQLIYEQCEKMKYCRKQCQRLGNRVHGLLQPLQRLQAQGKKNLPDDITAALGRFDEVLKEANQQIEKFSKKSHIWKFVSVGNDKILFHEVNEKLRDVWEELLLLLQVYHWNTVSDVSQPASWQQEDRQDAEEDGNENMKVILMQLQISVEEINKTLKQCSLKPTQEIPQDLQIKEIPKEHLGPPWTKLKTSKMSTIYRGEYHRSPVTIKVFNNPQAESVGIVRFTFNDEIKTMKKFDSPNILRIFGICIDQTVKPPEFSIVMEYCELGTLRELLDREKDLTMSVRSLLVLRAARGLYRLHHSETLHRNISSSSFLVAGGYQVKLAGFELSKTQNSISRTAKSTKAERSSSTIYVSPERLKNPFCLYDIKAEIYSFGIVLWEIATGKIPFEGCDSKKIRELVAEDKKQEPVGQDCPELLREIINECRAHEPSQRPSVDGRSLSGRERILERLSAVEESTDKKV

| Structure (SMILES) | DC50 (endogenous MLKL in MDF) [nM] | Kd (human MLKL (full length)) [nM] | IC50 [1] [nM] |
| --- | --- | --- | --- |
| C[C@H](Oc1cc(-c2nn(C)c3c(-c4cnn(C5CCN(C(=O)CCC6CCN(c7cc8c(cc7F)C(=O)N(C7CCC(=O)NC7=O)C8=O)CC6)CC5)c4)cnc(N)c23)ccc1NS(=O)(=O)C(F)F)c1ccc(F)cc1 (stereo partly drawn) [Compound 1087, N-[4-(4-amino-7-{1-[1-(3-{1-[2-(2,6-dioxopiperidin-3-yl)-6-fluoro-1,3-dioxo-2,3-dihydro-1H-isoindol-5-yl]piperidin-4-yl}propanoyl)piperidin-4-yl]-1H-pyrazol-4-yl}-1-methyl-1H-pyrazolo[4,3-c]pyridin-3-yl)-2-[(1S)-1-(4-fluorophenyl)ethoxy]phenyl]-1,1-difluoromethanesulfonamide] | < 1000 | 10 to 1000 | < 1000 |
| CN[C@@H](C)C(=O)N[C@H](C(=O)N1CC(NC(=O)CCCCCCCCn2cc(-c3cnc(N)c4c(-c5ccc(NS(=O)(=O)C(F)F)c(O[C@@H](C)c6ccc(F)cc6)c5)nn(C)c34)cn2)C[C@H]1C(=O)Nc1c(F)cccc1F)C(C)(C)C (stereo partly drawn) [Compound 1090, (2S)-4-[9-(4-{4-amino-3-[4-(difluoromethanesulfonamido)-3-[(1S)-1-(4-fluorophenyl)ethoxy]phenyl]-1-methyl-1H-pyrazolo[4,3-c]pyridin-7-yl}-1H-pyrazol-1-yl)nonanamido]-N-(2,6-difluorophenyl)-1-[(2S)-3,3-dimethyl-2-[(2S)-2-(methylamino)propanamido]butanoyl]pyrrolidine-2-carboxamide] | 1000 to 10000 | < 10 | 1000 to 10000 |
| C[C@H](Oc1cc(-c2nn(C)c3c(-c4cnn(C5CCN(C(=O)c6ccc7c(c6)CN(C6CCC(=O)NC6=O)C7=O)CC5)c4)cnc(N)c23)ccc1NS(=O)(=O)C(F)F)c1ccc(F)cc1 (stereo partly drawn) [Compound 1096, N-{4-[4-amino-7-(1-{1-[2-(2,6-dioxopiperidin-3-yl)-1-oxo-2,3-dihydro-1H-isoindole-5-carbonyl]piperidin-4-yl}-1H-pyrazol-4-yl)-1-methyl-1H-pyrazolo[4,3-c]pyridin-3-yl]-2-[(1S)-1-(4-fluorophenyl)ethoxy]phenyl}-1,1-difluoromethanesulfonamide] | < 1000 | < 10 | 1000 to 10000 |
| CCS(=O)(=O)Nc1ccc(-c2nn(C)c3c(-c4cnn(C5CCN(C(=O)[C@H]6C[C@H](Nc7cccc8c7C(=O)N(C7CCC(=O)NC7=O)C8=O)C6)CC5)c4)cnc(N)c23)cc1F (stereo partly drawn) [Compound 1102, N-{4-[4-amino-1-methyl-7-(1-{1-[(trans)-3-{[2-(2,6-dioxopiperidin-3-yl)-1,3-dioxo-2,3-dihydro-1H-isoindol-4-yl]amino}cyclobutanecarbonyl]piperidin-4-yl}-1H-pyrazol-4-yl)-1H-pyrazolo[4,3-c]pyridin-3-yl]-2-fluorophenyl}ethane-1-sulfonamide] | < 1000 | < 10 | < 1000 |
| C[C@H](Oc1cc(-c2nn(C)c3c(-c4cnn(C5CCN(C(=O)OCC6CCN(c7cccc8c7C(=O)N(C7CCC(=O)NC7=O)C8=O)CC6)CC5)c4)cnc(N)c23)ccc1NS(=O)(=O)C(F)F)c1ccc(F)cc1 (stereo partly drawn) [Compound 1105, {1-[2-(2,6-dioxopiperidin-3-yl)-1,3-dioxo-2,3-dihydro-1H-isoindol-4-yl]piperidin-4-yl}methyl4-(4-{4-amino-3-[4-(difluoromethanesulfonamido)-3-[(1 S)-1-(4-fluorophenyl)ethoxy]phenyl]-1-methyl-1H-pyrazolo[4,3-c]pyridin-7-yl}-1H-pyrazol-1-yl)piperidine-1-carboxylate] | < 1000 | 10 to 1000 | < 1000 |
| C[C@H](Oc1cc(-c2nn(C)c3c(-c4cnn(C5CCN(C(=O)[C@H]6C[C@H](N(C)c7ccc8c(c7)C(=O)N(C7CCC(=O)NC7=O)C8=O)C6)CC5)c4)cnc(N)c23)ccc1NS(=O)(=O)C(F)F)c1ccc(F)cc1 (stereo partly drawn) [Compound 1106, N-{4-[4-amino-1-methyl-7-(1-{1-[(trans)-3-{[2-(2,6-dioxopiperidin-3-yl)-1,3-dioxo-2,3-dihydro-1H-isoindol-5-yl](methyl)amino}cyclobutanecarbonyl]piperidin-4-yl}-1H-pyrazol-4-yl)-1H-pyrazolo[4,3-c]pyridin-3-yl]-2-[(1S)-1-(4-fluorophenyl)ethoxy]phenyl}-1,1-difluoromethanesulfonamide] | < 1000 | < 10 | < 1000 |

The next lines start with results.

| DC50 (endogenous MLKL in MDF) [nM] | Kd (human MLKL (full length)) [nM] | Structure (SMILES) | IC50 [1] [nM] |
| --- | --- | --- | --- |
| < 1000 | < 10 | C[C@H](Oc1cc(-c2nn(C)c3c(-c4cnn(C5CCN(C(=O)[C@H]6C[C@H](Nc7ccc8c(c7)C(=O)N(C7CCC(=O)NC7=O)C8=O)C6)CC5)c4)cnc(N)c23)ccc1NS(=O)(=O)C(F)F)c1ccc(F)cc1 (stereo partly drawn) [Compound 1094, N-{4-[4-amino-1-methyl-7-(1-{1-[(trans)-3-{[2-(2,6-dioxopiperidin-3-yl)-1,3-dioxo-2,3-dihydro-1H-isoindol-5-yl]amino}cyclobutanecarbonyl]piperidin-4-yl}-1H-pyrazol-4-yl)-1H-pyrazolo[4,3-c]pyridin-3-yl]-2-[(1S)-1-(4-fluorophenyl)ethoxy]phenyl}-1,1-difluoromethanesulfonamide] | < 1000 |
| < 1000 | < 10 | C[C@H](Oc1cc(-c2nn(C)c3c(-c4cnn(C5CCN(C(=O)N6CCN(c7cccc8c7C(=O)N(C7CCC(=O)NC7=O)C8=O)CC6)CC5)c4)cnc(N)c23)ccc1NS(=O)(=O)C(F)F)c1ccc(F)cc1 (stereo partly drawn) [Compound 1103, N-(4-{4-amino-7-[1-(1-{4-[2-(2,6-dioxopiperidin-3-yl)-1,3-dioxo-2,3-dihydro-1H-isoindol-4-yl]piperazine-1-carbonyl}piperidin-4-yl)-1H-pyrazol-4-yl]-1-methyl-1H-pyrazolo[4,3-c]pyridin-3-yl}-2-[(1S)-1-(4-fluorophenyl)ethoxy]phenyl)-1,1-difluoromethanesulfonamide] | < 1000 |
| < 1000 | 10 to 1000 | C[C@H](Oc1cc(-c2nn(C)c3c(-c4cnn(C5CCN(C(=O)[C@H]6C[C@H](Nc7cccc8c7C(=O)N(C7CCC(=O)NC7=O)C8=O)C6)C6(CC6)C5)c4)cnc(N)c23)ccc1NS(=O)(=O)C(F)F)c1ccc(F)cc1 (stereo partly drawn) [Compound 1107, N-{4-[4-amino-1-methyl-7-(1-{4-[(1r,3r)-3-{[2-(2,6-dioxopiperidin-3-yl)-1,3-dioxo-2,3-dihydro-1H-isoindol-4-yl]amino}cyclobutanecarbonyl]-4-azaspiro[2.5]octan-7-yl}-1H-pyrazol-4-yl)-1H-pyrazolo[4,3-c]pyridin-3-yl]-2-[(1S)-1-(4-fluorophenyl)ethoxy]phenyl}-1,1-difluoromethanesulfonamide] | < 1000 |
| < 1000 | < 10 | C[C@H](Oc1cc(-c2nn(C)c3c(-c4cnn(C5CCN(C(=O)[C@]6(F)C[C@H](Nc7cccc8c7C(=O)N(C7CCC(=O)NC7=O)C8=O)C6)CC5)c4)cnc(N)c23)ccc1NS(=O)(=O)C(F)F)c1ccc(F)cc1 (stereo partly drawn) [Compound 1110, N-{4-[4-amino-1-methyl-7-(1-{1-[(trans)-3-{[2-(2,6-dioxopiperidin-3-yl)-1,3-dioxo-2,3-dihydro-1H-isoindol-4-yl]amino}-1-fluoro-cyclobutanecarbonyl]piperidin-4-yl}-1H-pyrazol-4-yl)-1H-pyrazolo[4,3-c]pyridin-3-yl]-2-[(1S)-1-(4-fluorophenyl)ethoxy]phenyl}-1,1-difluoromethanesulfonamide] | < 1000 |
